Data reported in publication PMC12751012, “Nanoscale Direct-to-Biology Optimization and Structural Insights into Selective S. aureus TrmD Inhibitors” (Journal of Medicinal Chemistry, 2025).
“Also recorded” adds a separate entry of the source. Read-outs that look alike come from different tables or passages of the source.

How the values were obtained:
E. coli ATCC10536 = assay: Bacterial growth inhibition assay, E. coli ATCC10536; assay type: cell-based, Escherichia coli; conditions: for effect on E. coli growth: up to 100 μM, growth curves
Protocol: (§1) Compounds were dissolved in DMSO to a final concentration of 20 mM. To determine the compound’s activity against different bacteria, a bacterial culture (E. coli ATCC10536, S. aureus RN4220) was set up to an optical density at 600 nm (OD600) of 0.05 from an overnight culture in Mueller-Hinton broth (Carl Roth). The compound was added in different concentrations ranging from […] to 1 μM. DMSO concentration was constantly adjusted to be 1% in the final culture. Cultures of 200 μL were incubated for 24 h at 37 °C in flat-bottom 96-well polystyrene culture plates (Greiner) using a BioTek Synergy H1 plate reader. Plates were incubated under constant shaking, and absorbance at 600 nm was measured every 20 min. The experiment was performed in three biological replicates with three technical replicates each.

S. aureus RN4220 = assay: Bacterial growth inhibition assay, S. aureus RN4220; assay type: cell-based, Staphylococcus aureus; conditions: for effect on S. aureus RN4220 growth: 1, 10 and 100 μM, 24 h growth curves; for MIC: Staphylococcus aureus, read-out: MIC S. aureus
Protocol: as §1

S. aureus TrmD = target: T1, S. aureus TrmD (Staphylococcus aureus, UniProt Q2FZ43); assay: Fluorescence polarization (FP) assay, tracer 4, S. aureus TrmD; assay type: binding
T1 construct: made in house; host or cells: E. coli BL21
T1 sequence (Q2FZ43 1-245): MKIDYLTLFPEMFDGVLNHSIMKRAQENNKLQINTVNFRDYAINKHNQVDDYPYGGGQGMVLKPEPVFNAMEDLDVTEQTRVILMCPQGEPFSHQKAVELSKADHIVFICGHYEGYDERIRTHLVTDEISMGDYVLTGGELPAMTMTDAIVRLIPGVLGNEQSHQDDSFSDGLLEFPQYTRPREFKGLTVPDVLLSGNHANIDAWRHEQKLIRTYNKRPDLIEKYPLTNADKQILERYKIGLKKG
Protocol: To enable the screening of hundreds of nanomole-scale synthesized compounds, the implementation of a high-throughput-capable RNA methyltransferase (MTase) assay is considered fundamental. […] In this assay format, a fluorescent, SAM-pocket binding tracer can be displaced by the compound under investigation, and the resulting change in fluorescence polarization defines the read-out of the inhibitor compound’s affinity (Figure A).
Fluorescence polarization (FP) assays were performed as follows. The assays for H. influenzae TrmD have been described previously. All assays were conducted in technical triplicate using black 96-well half area plates. For the FP assays, a tracer (20 nM Cy5TPD for E. coli and H. influenzae TrmD, 10 nM tracer 4 for S. aureus TrmD) was mixed with the respective enzyme (2 μM E. coli TrmD, 2 μM H. influenzae TrmD, 500 nM S. aureus TrmD) in buffer (E. coli and H. influenzae TrmD: 50 mM HEPES, 500 mM NaCl, 5% Glycerol, pH 7.5, S. aureus TrmD: 40 mM Tris HCl, 100 mM NaCl, 10 mM MgCl2, 5% Glycerol, pH 7.5). The compounds were added in varying concentrations for K D-value determination. […] The Z-factor for tracer 4 was determined by measuring 48 replicates of the free tracer (positive controls, PC) and 48 replicates of a mixture of enzyme and tracer (negative controls, NC). The Z-factor is defined in terms of the means (μ) and standard deviations (σ) of the positive and negative controls and calculated as Z = 1–(3*(σnc + σpc)/(μnc–μpc)). […] Polarization values (mP) were determined from polarization-specific parallel and orthogonal fluorescence intensities. K D-values were calculated in GraphPad Prism 8.0.1 using the four-parameter Hill equation: y(% tracer bound) = bottom + ([ligand]-slope) × (top–bottom)/([ligand]-slope + K Dslope).

human Trm5 = target: T2, human Trm5 (Homo sapiens, UniProt Q32P41); assay: 3H-based MTase enzyme inhibition assay, Trm5; assay type: biochemical; conditions: 3H-based enzyme assay, screened at 30 μM
T2 construct: a truncated construct of Trm5 (aa 66–475), with flexible termini omitted; made in house; host or cells: E. coli Rosetta2 (DE3)
T2 sequence (Q32P41 66-475): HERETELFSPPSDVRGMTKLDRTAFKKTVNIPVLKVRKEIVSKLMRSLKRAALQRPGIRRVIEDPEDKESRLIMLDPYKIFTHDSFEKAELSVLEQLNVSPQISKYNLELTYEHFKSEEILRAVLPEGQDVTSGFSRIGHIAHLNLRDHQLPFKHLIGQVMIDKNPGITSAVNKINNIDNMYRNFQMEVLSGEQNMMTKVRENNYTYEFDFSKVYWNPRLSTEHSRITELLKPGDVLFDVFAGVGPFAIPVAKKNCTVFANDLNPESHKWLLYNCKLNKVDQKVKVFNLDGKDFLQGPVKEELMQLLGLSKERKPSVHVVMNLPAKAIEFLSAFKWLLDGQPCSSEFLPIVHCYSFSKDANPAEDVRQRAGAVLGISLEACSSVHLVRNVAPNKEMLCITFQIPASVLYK
Protocol: ^3H-based inhibition assays for TrmD S. aureus were performed in 50 mM HEPES, 5 mM MgCl2, 80 mM NaCl, 0.005% Tween-20, 1 mM DTT, pH 7.5 buffer; and for Trm5 in 100 mM Tris-HCl, 0.1 mM EDTA, 6 mM MgCl2, 100 mM KCl, 2 mM DTT, pH 7.4. The reaction mixture contained for S. aureus TrmD: 1 μM synthetic tRNA^Leu (Genscript, see above) and 100 nM S. aureus TrmD; For human Trm5:10 μM synthetic tRNA^Leu and 1.5 μM Trm5. Compounds were screened for S. aureus TrmD at 1 μM and for Trm5 at 30 μM. The enzymatic reactions were started by the addition of SAM as a mixture of ^3H-SAM (Hartmann Analytics, S. aureus TrmD: 0.5 μM, Trm5: 2 μM) and cold SAM (New England Biolabs, S. aureus TrmD: 0.5 μM, Trm5: 98 μM) to a final activity of 0.04 μCi μL^–1 (TrmD) or 0.16 μCi μL^–1 (Trm5). The reaction mixtures were incubated in duplicate for 60 min (TrmD)/30 min (Trm5) at 37 °C. As a negative control, the reaction mixture without the enzyme was used, and as a positive control, the reaction mixture without the test compound was used. After the enzyme incubation time, aliquots of 8 μL were taken from the reaction mixture and spotted on Whatman glass microfiber filters (GF/C, 25 mm). The tRNA was precipitated on the filters with 5% ice-cold TCA for 15 min. The filters were washed twice with 5% TCA at room temperature for 20 and 10 min, and once in EtOH for 10 min. After drying, the filters were transferred into scintillation vials with 3 mL of PerkinElmer Gold MV liquid scintillation cocktail. Scintillation was measured with a scintillation counter (TriCarb Liquid Scintillation Analyzer 4810TR; measurement time of 1 min).

[1] = apparent affinity, purified compound, 500 nM TrmD, 10 nM tracer 4, read-out: KD S. aureus TrmD (FP displacement assay)

SMILES	effect on E. coli growth (E. coli ATCC10536)	effect on S. aureus RN4220 growth (S. aureus RN4220)	MIC (S. aureus RN4220; RN4220, 24 h) [µM]	Kd (S. aureus TrmD; [1]) [µM]	IC50 (human Trm5) [µM]	MIC (S. aureus RN4220; RN4220, 24 h (1440 min)) [µM]	E. coli growth rate (E. coli ATCC10536; highest concentration (100 μM))	S. aureus TrmD binding (FP) (S. aureus TrmD; up to 100 μM)	Kd (S. aureus TrmD; chromatographically purified compound, read-out: KD S. aureus TrmD (FP displacement assay)) [µM]	Kd (S. aureus TrmD; KD S. aureus TrmD (FP displacement assay), apparent affinity, purified compound, 500 nM TrmD, 10 nM tracer 4) [µM]
N#Cc1cccc(Cn2cc(-c3c[nH]c4nc[nH]c(=O)c34)nn2)c1 [Compound 8b, 3-((4-(4-Oxo-4,7-dihydro-3H-pyrrolo[2,3-d]pyrimidin-5-yl)-1H-1,2,3-triazol-1-yl)methyl)benzonitrile]	no pronounced effect on growth	no pronounced effect on growth	> 100	1.82 ± 0.13	> 30					
N[C@@H]1CCC[C@@H]1Cn1cc(-c2c[nH]c3nc[nH]c(=O)c23)nn1 [Compound 8e, 5-(1-(((1R,2R)-2-Aminocyclopentyl)methyl)-1H-1,2,3-triazol-4-yl)-3,7-dihydro-4H-pyrrolo[2,3-d]pyrimidin-4-one]	no pronounced effect on growth	no pronounced effect on growth		1.62 ± 0.24	> 30	> 100				
O=C(/N=C(\NCCn1cc(-c2c[nH]c3nc[nH]c(=O)c23)nn1)NC(=O)OCc1ccccc1)OCc1ccccc1 [Compound 8f]	no significant growth inhibition	significant reduction in S. aureus growth; also recorded: significant effect on S. aureus bacteria in lower concentrations		> 100	> 30	12.5	slight increase	no S. aureus TrmD binding		
O=c1[nH]cnc2[nH]cc(-c3cn(Cc4ccc5ncccc5c4)nn3)c12 [Compound 8d, 5-(1-(Quinolin-6-ylmethyl)-1H-1,2,3-triazol-4-yl)-3,7-dihydro-4H-pyrrolo[2,3-d]pyrimidin-4-one]	no pronounced effect on growth	no pronounced effect on growth		0.72 ± 0.07	> 30	> 100			0.725 ± 0.075	
NC(N)=NCCn1cc(-c2c[nH]c3nc[nH]c(=O)c23)nn1 [Compound 8h]					> 30					2.48 ± 0.21
O=c1[nH]cnc2[nH]cc(-c3cn(CC4CCC5C(CC4)C5(F)F)nn3)c12 (stereo not shown) [Compound 8c, 5-(1-((8,8-Difluorobicyclo[5.1.0]octan-4-yl)methyl)-1H-1,2,3-triazol-4-yl)-3,7-dihydro-4H-pyrrolo[2,3-d]pyrimidin-4-one]	no pronounced effect on growth	no pronounced effect on growth		1.05 ± 0.11	> 30	> 100				
CC(C)(C)OC(=O)/N=C(\NCCn1cc(-c2c[nH]c3nc[nH]c(=O)c23)nn1)NC(=O)OC(C)(C)C [Compound 8g]	no significant growth inhibition			19.8	> 30	> 100				
